pIC50: −log10 of the molar value.
Assay: Compound was tested for binding affinity to dopamine reuptake sites in the tissue homogenates prepared from […] striatum using [3H]CFT as radioligand

SMILES | pIC50
COC(=O)[C@@H]1C2CC[C@H](C[C@@H]1c1ccc(I)cc1)N2C | 8.80
COC(=O)C1C(c2ccc(I)cc2)CC2CCC1N2C [(3S,5R)-methyl 3-(4-iodophenyl)-8-methyl-8-aza-bicyclo[3.2.1]octane-2-carboxylate] | 7.06
